Data as given in patent US20230123588A1, “METHODS OF SLOWING BRAIN VOLUME LOSS” (ACTELION PHARMACEUTICALS LTD, priority 2020, published 2023).

Legend:
[1] = tested on: adult subjects with brain volume loss (relapsing multiple sclerosis); assay: Reasons for premature treatment discontinuation in the study; format: in vivo; conditions: for subjects discontinued due to AEs or tolerability related reasons / subjects discontinued due to efficacy related reasons: ponesimod 20 mg, teriflunomide 14 mg
Protocol: A total of 1468 subjects were screened. Of those, 1133 subjects were randomized (567 to ponesimod 20 mg and 566 to teriflunomide 14 mg) across 162 sites in 28 countries, and 1131 subjects received at least one dose of study drug. The disposition of subjects is summarized in Table 1 and a summary of reasons (primary reason) for treatment discontinuation are shown in Table 2. Overall treatment and study discontinuation were balanced across both treatment arms. A total of 6.5% and 2.5% of the subjects discontinued due to AEs or tolerability related reasons in ponesimod 20 mg and teriflunomide 14 mg, respectively, while 1.9% and 4.3% discontinued due to efficacy related reasons. There were 2 deaths reported during the study—both on teriflunomide 14 mg.

[2] = tested on: adult subjects with brain volume loss (relapsing multiple sclerosis); assay: 12-lead ECG heart rate and first-dose monitoring on Day 1; format: in vivo, human; conditions: for mean heart rate reduction compared to pre-dose: Day 1, 2-hours post dose, 12-lead ECG, ponesimod 20 mg arm, teriflunomide 14 mg; for subjects with asymptomatic post-dose HR≤40 bpm: Day 1, all had pre-treatment HR<55 bpm
Protocol: The incidence of treatment-emergent heart rate and rhythm (including hypotension) AESIs on Day 1 was higher in the ponesimod 20 mg arm (2.1%) than in the teriflunomide 14 mg arm (0.4%). However, the overall incidence of first dose AESI on Day 1 was low (2.1%) in ponesimod. None of these events were serious nor led to permanent discontinuation of study treatment. Discharge criteria at 4 hours post-dose were met for ca. 99% of subjects. […] ECG HR effect: nadir at 2 hours post-dose (siponimod—3-4 hours, fingolimod—around by 6 hours). Low incidence of low HR outliers (post-dose HR≤40 bpm), all 3 of them with a pre-treatment HR of <55 bpm, which is a known risk factor for post-dose bradycardia with S1P receptor modulators.
The mean heart rate reduction compared to pre-dose reached a maximum for ponesimod 20 mg at 2-hours post dose, −8.7 bpm compared to −1.7 bpm for teriflunomide 14 mg (FIG. 2).

[3] = tested on: adult subjects with brain volume loss (relapsing multiple sclerosis); conditions: human, in vivo
From the text: Based on the individual case review, most ALT/AST increases ≥3×ULN occurred as a single transient asymptomatic episode, resolving with continued treatment or after protocol mandated treatment discontinuation. All but one case of bilirubin increase ≥2×ULN occurred in subjects with pre-treatment bilirubin increases. One case of potential Hy's law occurred in a subject with pre-existing transaminase elevation (ALT>5×ULN), and the event fully resolved within 2 weeks after treatment discontinuation.

[4] = tested on: adult subjects with brain volume loss (relapsing multiple sclerosis); assay: Percent change in brain volume from baseline (MRI, SIENA) in randomized double-blind study of ponesimod vs teriflunomide; format: in vivo, human; conditions: Week 60
[5] = tested on: adult subjects with brain volume loss (relapsing multiple sclerosis); assay: as above; format: in vivo, human; conditions: for LS Mean difference in percent change in brain volume (Ponesimod 20 mg − Teriflunomide 14 mg) / LS Mean percent change in brain volume from baseline: Week 108; for brain volume loss (BVL) up to EOS: teriflunomide 14 mg
Protocol: Main analysis set for efficacy: The Full Analysis Set (FAS) included all randomized subjects. Subjects were evaluated according to the treatment they were randomized to.
Efficacy variable/timepoint: The endpoint was brain volume loss up to the end of study (EOS). All available data up to EOS, regardless of treatment discontinuation was included (ITT approach).
Using a mixed model with linear time effect (adjusted for stratification factors, presence/absence of GD+T1 lesions at baseline, and normalized brain volume at baseline), the LS mean percent change from baseline to Week 108 in brain volume was −0.91% in the ponesimod 20 mg group (n=436) and −1.25% in the teriflunomide 14 mg group (n=434). The LS mean difference (ponesimod 20 mg—teriflunomide 14 mg) was 0.34% (95% CLs: 0.17, 0.50; p<0.0001).
Results of the analysis using a repeated measurements ANOVA model (MMRM) were consistent with that described above with respect to the mixed model with linear time effect.

[6] = tested on: adult subjects with brain volume loss (relapsing multiple sclerosis); assay: Treatment-emergent adverse events, AESIs and deaths (Safety Set); format: in vivo, human; conditions: Ponesimod 20 mg N = 565, Teriflunomide 14 mg N = 566
Protocol: The most common AESIs were reported for category hepatobiliary disorders/liver enzyme abnormality (25.7% vs 14.5% in ponesimod 20 mg compared to teriflunomide 14 mg, respectively), followed by category hypertension (10.1% vs 9.0%), and pulmonary events (8.0% vs 2.7%).

[7] = other S1P receptor modulators, given for comparison; cited from earlier work
[8] = Safety Set, Ponesimod 20 mg N = 565, Teriflunomide 14 mg N = 566
[9] = mixed model with linear time effect
[10] = mixed model with linear time effect, Ponesimod 20 mg (436 subjects), Teriflunomide 14 mg (434 subjects)
[11] = repeated measurements ANOVA model (MMRM)
[12] = repeated measurements ANOVA model (MMRM), Ponesimod 20 mg (418 subjects), Teriflunomide 14 mg (414 subjects)
[13] = ponesimod 20 mg, up to end of study

SMILES	Premature discontinuation: Death (number) [1, 8] [n]	Premature discontinuation: Physician decision, Adverse event (number) [1, 8] [n]	Premature discontinuation: Physician decision, Adverse event (percent) [1, 8]	Premature discontinuation: Physician decision, Lack of efficacy/treatment failure (number) [1, 8] [n]	Premature discontinuation: Physician decision, Lack of efficacy/treatment failure (percent) [1, 8]	Premature discontinuation: Pre-specified study treatment discontinuation criteria (number) [1, 8] [n]	Premature discontinuation: Pre-specified study treatment discontinuation criteria (percent) [1, 8]	Premature discontinuation: Subject decision, Efficacy related (number) [1, 8] [n]	Premature discontinuation: Subject decision, Efficacy related (percent) [1, 8]	Premature discontinuation: Subject decision, Tolerability related (number) [1, 8] [n]	Premature discontinuation: Subject decision, Tolerability related (percent) [1, 8]	subjects discontinued due to AEs or tolerability related reasons [1] [%]	subjects discontinued due to efficacy related reasons [1] [%]	mean heart rate reduction compared to pre-dose [2] [bpm]	subjects with asymptomatic post-dose HR≤40 bpm [2]	proportion of subjects who experienced ALT increase >8×ULN [3] [%]	proportion of subjects who experienced ALT increase ≥3×ULN [3] [%]	LS Mean percent change in brain volume from baseline [4, 10] [%]	LS Mean percent change in brain volume from baseline [4, 12] [%]	LS Mean percent change in brain volume from baseline [5, 10] [%]	also measured
CCC/N=C1\S/C(=C\c2ccc(OC[C@H](O)CO)c(Cl)c2)C(=O)N1c1ccccc1C [Ponesimod, (R)-5-[3-chloro-4-(2,3-dihydroxy-propoxy)-benz[Z]ylidene]-2-([Z]-propylimino)-3-o-tolyl-thiazolidin-4-one]	0	29	(5.1) %	4	(0.7) %	12	(2.1) %	7	(1.2) %	8	(1.4) %	6.5	1.9	−8.7	3 subjects	0.7	17.3	−0.45	−0.43	−0.91	2nd or higher degree AV block ([2]; Day 1, first dose): No 2nd or higher degree AV block was observed; subjects meeting discharge criteria at 4 hours post-dose ([2]; Day 1, first dose): ca. 99%; time of ECG HR nadir (maximum mean heart rate reduction) post-dose ([2]; Day 1, first dose): 2 h; LS Mean difference in percent change in brain volume (Ponesimod 20 mg − Teriflunomide 14 mg) [4, 9]: 0.08%; LS Mean difference in percent change in brain volume (Ponesimod 20 mg − Teriflunomide 14 mg) [4, 11]: 0.13%; LS Mean difference in percent change in brain volume (Ponesimod 20 mg − Teriflunomide 14 mg) [5, 9]: 0.34%; LS Mean difference in percent change in brain volume (Ponesimod 20 mg − Teriflunomide 14 mg) [5, 11]: 0.34%; LS Mean percent change in brain volume from baseline [5, 12]: −0.92%; reduction of brain volume loss up to EOS compared to teriflunomide 14 mg ([5]; ponesimod 20 mg): about 27%; efficacy in slowing brain volume loss over teriflunomide (conclusion) ([5]; ponesimod 20 mg vs teriflunomide 14 mg): superior efficacy; brain volume loss (BVL) up to EOS [5, 13]: −0.91%; difference in BVL up to EOS, ponesimod 20 mg vs teriflunomide 14 mg ([5]; up to end of study, p<0.0001): 0.34%; Subject with at least one Fatal AE [6]: 0 n (%)
C/C(O)=C(\C#N)C(=O)Nc1ccc(C(F)(F)F)cc1 [Teriflunomide]	2	9	(1.6) %	10	(1.8) %	16	(2.8) %	14	(2.5) %	5	(0.9) %	2.5	4.3	−1.7	none	2.1	8.3	−0.53	−0.55	−1.25	Premature discontinuation: Death (percent) [1, 8]: (0.4) %; LS Mean percent change in brain volume from baseline [5, 12]: −1.26%; brain volume loss (BVL) up to EOS [5, 13]: −1.25%; Subject with at least one Fatal AE [6]: 2 (0.4) n (%)
CCCCCCCCc1ccc(CCC(N)(CO)CO)cc1 [fingolimod]																					time of ECG HR nadir post-dose [7]: ~6 h
CCc1cc(/C(C)=N/OCc2ccc(C3CCCCC3)c(C(F)(F)F)c2)ccc1CN1CC(C(=O)O)C1 [siponimod]																					time of ECG HR nadir post-dose [7]: 3 to 4 h
